Measurements taken from publication PMC9698663, “Testing Serum Albumins and Cyclodextrins as Potential Binders of the Mycotoxin Metabolites Alternariol-3-Sulfate, Alternariol-9-Monomethylether and Alternariol-9-Monomethylether-3-Sulfate” (International Journal of Molecular Sciences, 2022).
Structures can show the parent of a compound that is named as a salt. Where two headings read alike, the source gives them in different places.

Columns and labels:
[1] = Fluorescence spectroscopic study of mycotoxin–SGD complexes; assay type: binding; details: for SGD logK (±SEM) BH-Plot / SGD logK (±SEM) Hyperquad: binding constant K in L/mol; for SGD logK (±SEM) BH-Plot: Benesi–Hildebrand plot; for SGD logK (±SEM) BH-Plot / SGD logK (±SEM) Hyperquad / logK with SGD (approximate): sodium acetate buffer pH 5.0; for logK of mycotoxin–SGD complexes at pH 10.0: sodium borate buffer pH 10.0
Method: (§1) Fluorescence emission spectra were collected employing a Hitachi F-4500 fluorescence spectrophotometer (Tokyo, Japan) at 25 °C and in the presence of air. UV–Vis absorption spectra of AS, AME, and AMS were recorded using a Jasco V730 UV–Vis spectrophotometer (Tokyo, Japan). In fluorescence spectroscopic studies, the inner-filter effects of mycotoxins were corrected as has been previously reported.
(§2) To examine the interaction of mycotoxins with the two CDs selected (SBECD and SGD), increasing amounts of the CDs (final concentrations: 0–10 mM) were added to mycotoxins (each 1 μM), then fluorescence emission spectra were recorded (λex = 335 nm for AS/AMS and 350 nm for AME; λem = 455 nm for AS, 485 nm for AME, and 460 nm for AMS). Binding constants (K, unit: L/mol) of mycotoxin–CD complexes were calculated employing the graphical application of the Benesi–Hildebrand equation (linear fitting) and using Hyperquad software (non-linear fitting). The Benesi–Hildebrand equation [25, 43] has been described as:(2) F0/F−F0=1/A+1/A×K×CD^n where, F0 and F are the fluorescence emission intensities of the mycotoxin in the absence and presence of CDs, respectively. [CD] is the molar concentration (mol/L) of the CD, while A is a constant, and n is the number of binding sites. Hyperquad evaluations were performed as has been previously reported.

[2] = molecular target: T1, human serum albumin (HSA) (Homo sapiens, UniProt P02768); assay: Ultrafiltration studies with Site I, Site II and Heme site markers; assay type: binding; parameters: purchased Merck (Darmstadt, Germany); details: mycotoxin 20 μM, PBS pH 7.4; for effect on filtered fraction of S-camptothecin (Heme site marker): camptothecin 1.0 μM + HSA 2.0 μM; for effect on filtered fraction of naproxen (Site II marker): naproxen 1.0 μM + HSA 1.5 μM; for effect on filtered fraction of warfarin (Site I marker): warfarin 1.0 μM + HSA 5.0 μM
T1 sequence (P02768 25-609): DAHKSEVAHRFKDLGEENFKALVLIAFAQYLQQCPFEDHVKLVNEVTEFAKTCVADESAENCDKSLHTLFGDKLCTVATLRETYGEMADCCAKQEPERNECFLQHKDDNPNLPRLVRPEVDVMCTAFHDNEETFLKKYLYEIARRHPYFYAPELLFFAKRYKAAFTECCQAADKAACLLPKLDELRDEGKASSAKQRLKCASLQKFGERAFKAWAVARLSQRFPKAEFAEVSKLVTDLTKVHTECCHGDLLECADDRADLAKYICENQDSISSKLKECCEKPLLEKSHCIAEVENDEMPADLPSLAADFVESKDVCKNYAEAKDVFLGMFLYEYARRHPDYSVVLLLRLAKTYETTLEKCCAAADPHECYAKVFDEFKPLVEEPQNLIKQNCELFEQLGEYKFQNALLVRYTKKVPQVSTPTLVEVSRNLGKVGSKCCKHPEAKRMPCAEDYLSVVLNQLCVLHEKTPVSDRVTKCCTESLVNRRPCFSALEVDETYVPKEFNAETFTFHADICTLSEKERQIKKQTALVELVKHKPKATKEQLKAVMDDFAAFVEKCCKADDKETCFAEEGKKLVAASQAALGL
Method: To test the binding sites of mycotoxin metabolites on HSA, ultrafiltration experiments were performed, where warfarin, naproxen, and S-camptothecin were used as Site I, Site II, and Heme site markers, respectively. Ultrafiltration studies were performed as described earlier, with minor modifications. Briefly, warfarin and naproxen samples were filtered using Amicon Ultra centrifugal filters (Merck, Darmstadt, Germany) with a 30 kDa molecular weight cut-off (MWCO) value. Camptothecin barely passed through these filters; therefore, the displacement of this Heme site marker was examined employing Pall Microsep Advance centrifugal devices (MWCO: 10 kDa; VWR, Budapest, Hungary). Each filter unit was washed once with water and once with PBS (pH 7.4). Thereafter, samples were centrifuged with a fixed angle rotor for 10 min at 7500 g and 25 °C. Before ultrafiltration, samples contained warfarin (1.0 μM) + HSA (5.0 μM), naproxen (1.0 μM) + HSA (1.5 μM), or camptothecin (1.0 μM) + HSA (2.0 μM) in the absence and presence of AS, AME, or AMS (each 20 μM) in PBS (pH 7.4). The filters used retain HSA (66.5 kDa) and albumin-bound ligands. Therefore, the elevated concentration of the site marker in the filtrate indicates its displacement from the protein [30, 36]. The concentrations of warfarin and camptothecin in the filtrate were analyzed by HPLC-FLD, while naproxen was quantified by HPLC-UV as has been previously reported.

[3] = Fluorescence spectroscopic study of mycotoxin–SBECD complexes; assay type: binding; details: for SBECD logK (±SEM) BH-Plot / SBECD logK (±SEM) Hyperquad: binding constant K in L/mol; for SBECD logK (±SEM) BH-Plot: Benesi–Hildebrand plot; for SBECD logK (±SEM) BH-Plot / SBECD logK (±SEM) Hyperquad / logK with SBECD (approximate): sodium acetate buffer pH 5.0
Method: as §1, §2

[4] = molecular target: T1, human serum albumin (HSA); assay: Fluorescence quenching of human serum albumin by mycotoxins; assay type: binding; parameters: purchased Merck (Darmstadt, Germany); details: for HSA logKSV (±SEM): Stern–Volmer quenching constant KSV in L/mol, linear fitting
Method: as §1
(§3) Then, fluorescence quenching studies were also performed, where increasing amounts of AS, AME, or AMS (final concentrations: 0–5 μM) were added to 2 μM concentrations of albumins (HSA, BSA, PSA, or RSA), after which emission spectra were recorded (λex = 295 nm). After the correction of the inner-filter effects, mycotoxin-induced changes were evaluated at 340 nm.
(§4) Quenching experiments were evaluated by employing the graphical application of the Stern–Volmer equation (linear fitting) and using HyperQuad2006 software (non-linear fitting). Stern–Volmer quenching constants (KSV; unit: L/mol) were determined based on the Stern–Volmer equation [30]:(1) I0/I=1+KSV×Q where I0 and I are the fluorescence emission intensities of albumin in the absence and presence of the quencher (mycotoxins), respectively; [Q] is the molar (mol/L) concentration of mycotoxins. Binding constants (K; unit: L/mol) were calculated using HyperQuad2006 software, as has been previously reported.

[5] = molecular target: T2, porcine serum albumin (PSA) (Sus scrofa, UniProt P08835); assay: Fluorescence quenching of porcine serum albumin by mycotoxins; assay type: binding; details: for PSA logKSV (±SEM): Stern–Volmer quenching constant KSV in L/mol, linear fitting
T2 construct: purchased Merck (Darmstadt, Germany)
T2 sequence (P08835 25-607): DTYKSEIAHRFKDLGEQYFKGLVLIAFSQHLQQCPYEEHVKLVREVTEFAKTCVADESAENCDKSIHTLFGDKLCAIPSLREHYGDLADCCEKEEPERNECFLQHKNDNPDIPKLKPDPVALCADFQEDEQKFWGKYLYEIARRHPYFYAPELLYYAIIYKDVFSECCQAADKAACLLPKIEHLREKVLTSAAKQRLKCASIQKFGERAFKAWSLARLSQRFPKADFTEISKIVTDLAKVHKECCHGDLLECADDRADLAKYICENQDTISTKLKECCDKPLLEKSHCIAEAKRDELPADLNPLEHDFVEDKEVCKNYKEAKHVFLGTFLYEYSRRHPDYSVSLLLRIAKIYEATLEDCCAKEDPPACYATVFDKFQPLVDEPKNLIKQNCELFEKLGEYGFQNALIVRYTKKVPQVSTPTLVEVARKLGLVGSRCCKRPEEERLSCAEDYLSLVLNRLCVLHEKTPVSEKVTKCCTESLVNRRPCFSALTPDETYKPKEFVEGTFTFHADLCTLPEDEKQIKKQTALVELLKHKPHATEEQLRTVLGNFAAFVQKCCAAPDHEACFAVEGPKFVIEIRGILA
Method: as §1, §3, §4

[6] = molecular target: T3, bovine serum albumin (BSA) (Bos taurus, UniProt P02769); assay: Fluorescence quenching of bovine serum albumin by mycotoxins; assay type: binding; details: for BSA logKSV (±SEM): Stern–Volmer quenching constant KSV in L/mol, linear fitting; for effect of environmental pH on binding to BSA: pH 5.0, 6.5, 7.4, 8.5, AME: pH 8.5 vs acidic and physiological conditions
T3 construct: purchased Merck (Darmstadt, Germany)
T3 sequence (P02769 25-607): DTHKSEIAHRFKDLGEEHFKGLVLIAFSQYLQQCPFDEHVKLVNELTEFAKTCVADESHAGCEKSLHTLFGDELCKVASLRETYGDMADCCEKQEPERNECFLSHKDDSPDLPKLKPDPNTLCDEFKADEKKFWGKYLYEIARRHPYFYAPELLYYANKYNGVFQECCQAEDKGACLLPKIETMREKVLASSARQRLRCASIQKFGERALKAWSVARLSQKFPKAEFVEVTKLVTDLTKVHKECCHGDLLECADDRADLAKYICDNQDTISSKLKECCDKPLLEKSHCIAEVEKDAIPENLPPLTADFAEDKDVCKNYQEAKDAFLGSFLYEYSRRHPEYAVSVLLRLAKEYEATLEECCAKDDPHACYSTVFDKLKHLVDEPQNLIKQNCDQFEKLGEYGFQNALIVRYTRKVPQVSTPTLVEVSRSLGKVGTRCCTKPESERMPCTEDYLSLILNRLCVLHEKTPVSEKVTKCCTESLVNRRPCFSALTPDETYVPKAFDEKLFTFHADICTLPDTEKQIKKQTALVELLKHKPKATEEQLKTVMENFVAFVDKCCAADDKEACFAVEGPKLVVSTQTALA
Method: as §1, §3, §4

rat serum albumin (RSA) [7] = molecular target: T4, rat serum albumin (RSA) (Rattus norvegicus, UniProt P02770); assay: Fluorescence quenching of rat serum albumin by mycotoxins; assay type: binding; details: for RSA logKSV (±SEM): Stern–Volmer quenching constant KSV in L/mol, linear fitting
T4 construct: purchased Merck (Darmstadt, Germany)
T4 sequence (P02770 25-608): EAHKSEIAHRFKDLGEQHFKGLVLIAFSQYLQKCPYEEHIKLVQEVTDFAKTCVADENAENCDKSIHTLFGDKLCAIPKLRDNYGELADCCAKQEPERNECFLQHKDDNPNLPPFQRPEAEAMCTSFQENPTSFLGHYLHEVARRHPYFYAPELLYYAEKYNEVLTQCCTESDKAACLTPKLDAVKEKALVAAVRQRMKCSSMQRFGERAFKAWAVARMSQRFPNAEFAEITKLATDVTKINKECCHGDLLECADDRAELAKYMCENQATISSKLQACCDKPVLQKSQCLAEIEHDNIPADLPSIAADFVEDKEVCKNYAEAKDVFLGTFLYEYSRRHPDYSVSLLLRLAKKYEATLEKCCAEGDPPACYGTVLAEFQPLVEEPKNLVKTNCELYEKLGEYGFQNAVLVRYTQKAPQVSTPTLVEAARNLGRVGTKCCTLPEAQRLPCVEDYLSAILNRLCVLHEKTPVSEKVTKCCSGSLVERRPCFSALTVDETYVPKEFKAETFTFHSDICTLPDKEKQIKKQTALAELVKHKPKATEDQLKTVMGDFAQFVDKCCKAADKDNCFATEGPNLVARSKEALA
Method: as §1, §3, §4

[8] = molecular target: T1, human serum albumin (HSA); assay: Ultracentrifugation studies (unbound fraction in presence of HSA); assay type: binding; parameters: purchased Merck (Darmstadt, Germany)
Method: To confirm the results of the quenching studies, the unbound fractions of AS, AME, and AMS were quantified in the presence of HSA. Applying the optimal conditions of ultracentrifugation, we can sediment albumin and albumin-bound molecules without the disruption of ligand–HSA interactions, then the free unbound fraction of the ligand molecule can be quantified from the protein-free supernatant. Samples contained AS, AME, or […] (each 10 μM) with HSA (20, 60, and 180 μM) in PBS (pH 7.4). These samples (900 μL) were centrifuged for 16 h at 170,000 g and 20 °C in 11 × 34 mm PC tubes (Beckman Coulter, Brea, CA, US), employing a Beckman Coulter Optima MAX-XP tabletop ultracentrifuge (with MLA-130 fixed-angle rotor). Then the concentrations of AS, AME, and AMS were directly analyzed from the supernatants with HPLC-FLD (see details in Section 3.7).
Assuming the 1:1 stoichiometry of complex formation, the binding constants (K) were calculated based on the following equation [36]:(3) K=MA/M×A where [M], [A], and [MA] are the molar concentrations (mol/L) of the free unbound mycotoxin, the free unbound albumin, and the mycotoxin–albumin complex, respectively.

rat serum albumin (RSA) [9] = molecular target: T4, rat serum albumin (RSA); parameters: method as in PMID 31083629; details: previous study; cited from earlier work
[10] = molecular target: T1, human serum albumin (HSA); parameters: purchased Merck (Darmstadt, Germany); method as in PMID 31083629; details: previous study; cited from earlier work
[11] = molecular target: T1, human serum albumin (HSA); details: cited from earlier work
[12] = binding constant K in L/mol, fluorescence quenching, Hyperquad non-linear fitting, PBS pH 7.4, read-out: HSA logK (±SEM) (converted)
[13] = binding constant K in L/mol, fluorescence quenching, Hyperquad non-linear fitting, read-out: PSA logK (±SEM) (converted)
[14] = binding constant K in L/mol, fluorescence quenching, Hyperquad non-linear fitting, read-out: BSA logK (±SEM) (converted)
[15] = binding constant K in L/mol, fluorescence quenching, Hyperquad non-linear fitting, read-out: RSA logK (±SEM) (converted)
[16] = mycotoxin 10 μM, HSA 20, 60, 180 μM, PBS pH 7.4, Equation (3), 1:1 stoichiometry, read-out: logK of mycotoxin–HSA complexes (ultracentrifugation) (converted)

| Compound | SGD logK (±SEM) BH-Plot [1] | SGD logK (±SEM) Hyperquad [1] | logK of mycotoxin–SGD complexes at pH 10.0 [1] | effect on filtered fraction of S-camptothecin (Heme site marker) [2] | effect on filtered fraction of naproxen (Site II marker) [2] | effect on filtered fraction of warfarin (Site I marker) [2] | SBECD logK (±SEM) BH-Plot [3] | SBECD logK (±SEM) Hyperquad [3] | HSA logKSV (±SEM) ([4]; PBS pH 7.4) | PSA logKSV (±SEM) [5] | BSA logKSV (±SEM) [6] | effect of environmental pH on binding to BSA [6] | RSA logKSV (±SEM) (rat serum albumin (RSA) [7]) | logK with SGD (approximate) [1] | logK with SBECD (approximate) [3] | Kd [4, 12] [nM] | Kd [5, 13] [nM] | Kd [6, 14] [nM] | Kd (rat serum albumin (RSA) [7]; [15]) [nM] | Kd [8, 16] [nM] | other results |
| --- | --- | --- | --- | --- | --- | --- | --- | --- | --- | --- | --- | --- | --- | --- | --- | --- | --- | --- | --- | --- | --- |
| COc1cc(O)c2c(=O)oc3cc(O)cc(C)c3c2c1 [AME, alternariol-9-monomethylether] | 3.95 ± 0.01 | 4.06 ± 0.01 | 4.25 ± 0.06 | no or only slight effects | no or only slight effects | statistically significant (p < 0.05) impact | 3.46 ± 0.01 | 3.56 ± 0.01 | 4.86 ± 0.05 | 4.73 ± 0.06 | 4.93 ± 0.05 | approximately ten-fold higher affinity | 5.15 ± 0.06 | – | – | – | – | – | – | – | stability of AME–SGD complex compared to CD complexes of the sulfate metabolites ([1]; pH 5.0): ten-fold; stability of AME–SBECD complex compared to CD complexes of the sulfate metabolites ([3]; pH 5.0): three-fold; Kd [4]: 11500 nM; Kd [5]: 14800 nM; Kd [6]: 9120 nM; Kd (rat serum albumin (RSA) [7]): 5130 nM; Kd [8]: 4570 nM |
| COc1cc(O)c2c(=O)oc3cc(OS(=O)(=O)O)cc(C)c3c2c1 [AMS, alternariol-9-monomethylether-3-sulfate ammonium salt] | 2.95 ± 0.05 | 3.21 ± 0.04 | 3.39 ± 0.10 | large | moderate | did not affect | 2.96 ± 0.01 | 3.08 ± 0.01 | 5.42 ± 0.06 | 5.60 ± 0.02 | 5.81 ± 0.01 | only minor changes | 5.92 ± 0.03 | ≈ 3 | ≈ 3 | 2630 | 1660 | 933 | 741 | 3240 | – |
| Cc1cc(OS(=O)(=O)O)cc2oc(=O)c3c(O)cc(O)cc3c12 [AS, Alternariol-3-sulfate ammonium salt] | 2.83 ± 0.01 | 2.99 ± 0.03 | 3.18 ± 0.58 | marked increases | lower but significant (p < 0.01) effect | marked increases | 3.02 ± 0.01 | 3.02 ± 0.03 | 5.44 ± 0.07 | 5.57 ± 0.02 | 5.60 ± 0.01 | only minor changes | 5.85 ± 0.03 | ≈ 3 | ≈ 3 | 2450 | 1660 | 1620 | 832 | 3160 | – |
| Cc1cc(O)cc2oc(=O)c3c(O)cc(O)cc3c12 [AOH, Alternariol] | – | – | – | – | – | – | – | – | – | – | – | – | – | – | – | – | – | – | – | – | affinity for rat albumin compared to human or porcine albumins (rat serum albumin (RSA) [9]): almost eight-fold higher affinity; displacement of naproxen (Site II marker) from HSA [10]: slightly displaced; displacement of warfarin (Site I marker) from HSA [10]: strongly displaced; effect on filtered fraction of camptothecin (Heme site marker) [10]: did not affect; logK of AOH–HSA complex [11]: 5.6 |
